From patent US20210261539A1, “COMPOUND HAVING BET INHIBITORY ACTIVITY AND PREPARATION METHOD AND USE THEREFOR” (Shanghai Haihe Pharmaceutical Co., Ltd., priority 2018, published 2021) come the findings set out here.

The target of this assay is T1, BRD4 BD1 (Homo sapiens, UniProt O60885).
T1 construct: Protein BRD4 BD1 used in the assay was purchased from Active Motif (cat. 31380); purchased Active Motif 31380
The experiment in a line: HTRF in vitro enzyme activity assay, inhibition of BRD4 BD1 binding to acetylated H4 peptide. The conditions noted are these: IC50 values of the compounds against BRD4 BD1 binding; class symbols A/B/C. As to the method:
Effect Examples: In Vitro Enzyme Activity Assay
Half inhibitory activity (IC50) of the compounds of the invention against the bromodomain protein BRD4 BD1 was determined in the present Examples.
The compounds of the invention were tested for inhibitory activity against BRD4 BD1 with Homogeneous Time-Resolved Fluorescence (HTRF).
2. Reagents, Consumable Materials and Instruments:
Protein BRD4 BD1 used in the assay was purchased from Active Motif (cat. 31380); streptavidin XL-665 (#610SAXLA) and EPIgeneous Binding Domain Kit A (#62BDAPEG) were both purchased from Cisbio Bioassays; [Lys(5,8,12,16)Ac] H4(1-21)-biotin (#64989), [Lys(5,8,12,16)Ac]H4(1-25) were available from Anaspec; OTX015 and ABBV-075 were purchased from Selleckchem Co. The 384-well ProxiPlate (#6008280) was purchased from Perkinelmer Co. The Laboratory microplate reader (Envision 2104) was available from PerkinElmer Co. The water used in the assay was Millipore-Q pure water.
3. Formulation of the Compound
10 mM DMSO stock solution of the test compound was diluted to 1 mM in DMSO, and then diluted 10-fold in Binding Domain dilution buffer (purchased from Cisbio Bioassays) for use (DMSO concentration in the final system was 0.1%), including 5 concentrations in 1:5 gradient.
4. Assay Protocol: 1 Batch, 2 Repeats
1) 5 μL of test compound was transferred to 45 μL Binding Domain dilution buffer.
2) 2 μL of 1× compound (4 μL Binding Domain dilution buffer: positive control; 6 μL enzyme buffer (purchased from Cisbio Bioassays): negative control) was transferred to a reaction plate.
3) 4 μL of 5×BRD 4(1) was added to the reaction plate (30 nM in the final system).
4) 4 μL of 5×[Lys(5,8,12,16)Ac] H4(1-21)-biotin was added to the reaction plate, and the plate was covered with a film and incubated at 37° C. for 30 min.
5) A detection mixture of SA-XL665 (2×) and anti-H3K9me0-Eu(K) (2×) was prepared in detection buffer (purchased from Cisbio Bioassays).
6) 10 μL of detection mixture (2×) was added to each well, incubated at RT for 3 h. The mp value was read by microplate reader Envision with the following parameters: […]
On the technique in general: Time-resolved FRET reads energy transfer from a long-lived donor to a nearby acceptor.
On to `CC1C(=O)N(C)c2ccc(N3C(=O)NCC3c3ccccc3)nc2N1C1CC1` (single isomer, unassigned) [Example A18-P4, 4-cyclopropyl-1,3-dimethyl-6-(2-oxo-5-phenylimidazolidin-1-yl)-3,4-dihydropyrido[2,3-b]pyrazin-2(1H)-one], for which the IC50 was at most 0.01 µM. Take `C[C@@H]1C(=O)N(C)c2ccc(N3C(=O)c4c(cccc4[S+](C)[O-])C3c3cccnc3)nc2N1C` (single isomer, unassigned) [Example A63-P4]: the IC50 was at most 0.01 µM. `C[C@@H]1C(=O)N(C)c2ccc(N3C(=O)c4c(cccc4[S+](C)[O-])C3c3cccnc3)nc2N1C` (single isomer, unassigned) [Example A63-P3] gave a half-maximal inhibitory concentration (IC50) of at most 0.01 µM.

Regarding `CC1C(=O)N(C)c2ccc(N3C(=O)c4cccc(F)c4C3c3cccnc3)nc2N1C1CC1` (single isomer, unassigned) [Example A75-P3, 4-cyclopropyl-6-(7-fluoro-3-oxo-1-(pyridin-3-yl)isoindolin-2-yl)-1,3-dimethyl-3,4-dihydropyrido[2,3-b]pyrazin-2(1H)-one], the half-inhibitory concentration (IC50) was at most 0.01 µM. For the compound `C[C@@H]1C(=O)N(C)c2ccc(N3C(=O)CCC3c3ccccc3)nc2N1C` (single isomer, unassigned) [Example A4-P2], the IC50 was at most 0.01 µM. The result for `CC1C(=O)N(C)c2ccc(N3C(=O)CCN3c3ccc(Cl)cc3)nc2N1C1CC1` (single isomer, unassigned) [Example A10-P2, 6-(2-(4-chlorophenyl)-5-oxopyrazolidin-1-yl)-4-cyclopropyl-1,3-dimethyl-3,4-dihydropyrido[2,3-b]pyrazin-2(1H)-one] reads 0.01 to 0.1 µM; that for `CC1C(=O)N(C)c2ccc(N3C(=O)CCC3c3ccccc3)nc2N1C1CCCC1` (single isomer, unassigned) [Example A2-P2-2, 4-cyclopentyl-1,3-dimethyl-6-(2-oxo-5-phenylpyrrolidin-1-yl)-3,4-dihydropyrido[2,3-b]pyrazin-2(1H)-one], at most 0.01 µM; that for `C[C@H]1Oc2nc(N3C(=O)c4ccccc4C3c3ccccn3)ccc2N(C)C1=O` (single isomer, unassigned) [Example A121-P1], at most 0.01 µM.

`CC1C(=O)N(C)c2cnc(N3C(=O)c4ccccc4C3c3cccnc3)cc2N1C1CC1` (single isomer, unassigned) [Example A70-P3, 1-cyclopropyl-2,4-dimethyl-7-(1-oxo-3-(pyridin-3-yl)isoindolin-2-yl)-1,4-dihydropyrido[3,4-b]pyrazin-3(2H)-one] gave an IC50 of at most 0.01 µM. The result for `C[C@H]1Oc2nc(N3C(=O)c4c(cccc4C(C)(C)O)C3c3ccc(F)cc3)ccc2N(C)C1=O` (single isomer, unassigned) [Example A119-P1] reads at most 0.01 µM; that for `C[C@@H]1C(=O)N(C)c2cnc(N3C(=O)c4cc(F)ccc4C3c3cccnc3)nc2N1C1CC1` (stereo partly drawn) [Example A95-P4, (7R)-8-cyclopropyl-2-(5-fluoro-3-oxo-1-(pyridin-3-yl)isoindolin-2-yl)-5,7 dimethyl-7,8-dihydropteridin-6(5H)-one], at most 0.01 µM. The result for `C[C@@H]1C(=O)N(C)c2cnc(N3C(=O)c4cc(F)ccc4C3c3cccnc3)nc2N1C` (single isomer, unassigned) [Example A97-P1] reads at most 0.01 µM; that for `CC1C(=O)N(CCF)c2ccc(N3C(=O)c4ccccc4C3c3cccnc3)nc2N1C1CC1` (stereo not drawn) [Example A52-P4, 4-cyclopropyl-1-(2-fluoroethyl)-3-methyl-6-(1-oxo-3-(pyridin-3-yl)isoindolin-2-yl)-3,4-dihydropyrido [2,3-b]pyrazin-2(1H)-one], at most 0.01 µM.

Turning to `CC1C(=O)N(C)c2cnc(N3C(=O)c4ccccc4C3c3ccc(F)nc3)nc2N1C1CC1` (single isomer, unassigned) [Example A101-P3, 8-cyclopropyl-2-(1-(6-fluoropyridin-3-yl)-3-oxoisoindol-2-yl)-5,7-dimethyl-7,8-dihydropteridin-6(5H)-one], the IC50 was at most 0.01 µM. Next, `C[C@@H]1C(=O)N(C)c2ccc(N3C(=O)CCC3c3ccccc3)nc2N1C1CCOCC1` (single isomer, unassigned) [Example A5-P1]: at most 0.01 µM. The result for `CC1Oc2nc(N3C(=O)CCC3c3ccc(F)cc3)ccc2N(C)C1=O` (single isomer, unassigned) [Example A21-P1, 6-(2-(4-fluorophenyl)-5-oxopyrrolidin-1-yl)-1,3-dimethyl-1H-pyrido[2,3-B][1,4]oxazin-2(3H)-one] reads at most 0.01 µM.

`CC1C(=O)N(C)c2ccc(N3C(=O)N(C)CC3c3ccccc3)nc2N1C1CC1` (single isomer, unassigned) [Example A19-P3, 4-cyclopropyl-1,3-dimethyl-6-(3-methyl-2-oxo-5-phenylimidazolidin-1-yl)-3,4-dihydropyrido[2,3-b]pyrazin-2(1H)-one]: the IC50 is at most 0.01 µM. The result for `C[C@H]1Oc2nc(N3C(=O)c4ccccc4C3c3ccc(F)cn3)ccc2N(C)C1=O` (single isomer, unassigned) [Example A110-P1] reads at most 0.01 µM; that for `C[C@H]1Oc2nc(N3C(=O)c4ccccc4C3c3ccc(Cl)cc3)ccc2N(C)C1=O` (stereo partly drawn) [Example A40-P1, (3R)-6-(1-(4-chlorophenyl)-3-oxoisoindolin-2-yl)-1,3-dimethyl-1H-pyrido[2,3-B][1,4]oxazin-2(3H)-one], at most 0.01 µM. As to `CC1C(=O)N(C)c2ccc(N3C(=O)c4c(C(=O)NC5CC5)cccc4C3c3ccc(F)cc3)nc2N1CC(F)(F)F` (stereo not drawn) [Example A85-P4, N-cyclopropyl-2-(1,3-dimethyl-2-oxo-4-(2,2,2-trifluoroethyl)-1,2,3,4-tetrahydropyrido[2,3-b]pyrazin-6-fluorophenyl)-3-oxoisoindoline-4-carboxamide], the IC50 is at most 0.01 µM. Next, `C[C@H]1Oc2nc(N3C(=O)c4ccccc4C3c3cccnc3)c(F)cc2N(C)C1=O` (single isomer, unassigned) [Example A124-P1]: 0.01 to 0.1 µM; `CC1C(=O)N(C)c2ccc(N3C(=O)c4cc(C(=O)N5CCN(C)CC5)ccc4C3c3ccc(F)cc3)nc2N1C1CC1` (single isomer, unassigned) [Example A78-P4, 4-cyclopropyl-6-(1-(4-fluorophenyl)-5-(4-methylpiperazine-1-carbonyl)-3-oxoisoindolin-2-yl)-1,3-dimethyl-3,4-dihydropyrido[2,3-b]pyrazin-2(1H)-one]: at most 0.01 µM; `C[C@H]1Oc2nc(N3C(=O)c4ccccc4C3c3ccc(Cl)nc3)ccc2N(C)C1=O` (single isomer, unassigned) [Example A122-P1]: 0.01 to 0.1 µM. Next, `CC1C(=O)N(C)c2ccc(N3C(=O)c4cc(F)ccc4C3c3cccnc3)nc2N1C1CC1` (single isomer, unassigned) [Example A74-P4, 4-cyclopropyl-6-(5-fluoro-3-oxo-1-(pyridin-3-yl)isoindolin-2-yl)-1,3-dimethyl-3,4-dihydropyrido[2,3-b]pyrazin-2(1H)-one]: at most 0.01 µM; `CC1C(=O)N(CF)c2ccc(N3C(=O)c4ccccc4C3c3cccnc3)nc2N1C1CC1` (stereo not drawn) [Example A45-P4, 4-cyclopropyl-1-(fluoromethyl)-3-methyl-6-(1-oxo-3-(pyridin-3-yl)isoindolin-2-yl)-3,4-dihydropyrido [2,3-b]pyrazin-2(1H)-one]: at most 0.01 µM.

For `C[C@H]1Nc2nc(N3C(=O)CCC3c3ccccc3)ccc2N(C)C1=O` (single isomer, unassigned) [Example A20-P1], the half-maximal inhibitory concentration (IC50) is 0.01 to 0.1 µM.

Turning to `CC1C(=O)N(C)c2ccc(N3C(=O)c4ccccc4C3c3ccc(Cl)cc3)nc2N1CCO` (racemic) [Example A34, 6-(1-(4-chlorophenyl)-3-oxoisoindolin-2-yl)-4-(2-hydroxyethyl)-1,3-dimethyl-3,4-dihydropyrido [2,3-b]pyrazin-2(1H)-one], the IC50 was at most 0.01 µM. Next, `C[C@@H]1C(=O)N(C)c2cnc(N3C(=O)c4ccccc4C3c3cccnc3)nc2N1C` (stereo partly drawn) [Example A90-P4, (7R)-5,7,8-trimethyl-2-(1-oxo-3-(pyridin-3-yl)isoindolin-2-yl)-7,8-dihydropteridin-6(5H)-one]: at most 0.01 µM.

For the compound `CC1C(=O)N(C)c2cc(F)c(N3C(=O)c4ccccc4C3c3cccnc3)nc2N1C1CC1` (stereo not drawn) [Example A44, 4-cyclopropyl-7-fluoro-1,3-dimethyl-6-(1-oxo-3-(pyridin-3-yl)isoindolin-2-yl)-3,4-dihydropyrido [2,3-b]pyrazin-2(1H)-one], the half-maximal inhibitory concentration (IC50) was at most 0.01 µM. Next, `CC1C(=O)N(C)c2ccc(N3C(=O)c4c(cccc4[S+](C)[O-])C3c3cccnc3)nc2N1C1CC1` (single isomer, unassigned) [Example A60-P3]: at most 0.01 µM.

Broadly, the IC50 is the concentration needed to halve the response being measured.
